# Data: the NIST ThermoML archive (doi:10.1016/j.jct.2015.04.024)
# Numbers after ± are expanded uncertainties.
# Test: mn = molality of the nth substance listed, in mol/kg
# Settings: 75 kPa, Liquid, Buoyancy - hydrostatic balance with magnetic suspension - one sinker
smiles,measurement,setting,value
CC(N)C(=O)O (stereo not drawn) [DL-2-aminopropanoic acid] + O,mass density,"275.63 K, m1 = 0.0294",1000.85 ± 0.16 kg/m3
same,mass density,"275.63 K, m1 = 0.04005",1001.17 ± 0.16 kg/m3
same,mass density,"275.63 K, m1 = 0.04974",1001.47 ± 0.16 kg/m3
same,mass density,"275.63 K, m1 = 0.0592",1001.76 ± 0.16 kg/m3
same,mass density,"275.63 K, m1 = 0.0695",1002.07 ± 0.16 kg/m3
same,mass density,"275.63 K, m1 = 0.08475",1002.53 ± 0.16 kg/m3
same,mass density,"275.63 K, m1 = 0.0911",1002.72 ± 0.16 kg/m3
same,mass density,"275.63 K, m1 = 0.1019",1003.05 ± 0.16 kg/m3
same,mass density,"276.13 K, m1 = 0.03044",1000.88 ± 0.16 kg/m3
same,mass density,"276.13 K, m1 = 0.04034",1001.19 ± 0.16 kg/m3
same,mass density,"276.13 K, m1 = 0.04918",1001.46 ± 0.16 kg/m3
same,mass density,"276.13 K, m1 = 0.05989",1001.78 ± 0.16 kg/m3
same,mass density,"276.13 K, m1 = 0.07063",1002.11 ± 0.16 kg/m3
same,mass density,"276.13 K, m1 = 0.07952",1002.37 ± 0.16 kg/m3
same,mass density,"276.13 K, m1 = 0.09022",1002.69 ± 0.16 kg/m3
same,mass density,"276.13 K, m1 = 0.09952",1002.98 ± 0.16 kg/m3
same,mass density,"276.69 K, m1 = 0.03006",1000.88 ± 0.16 kg/m3
same,mass density,"276.69 K, m1 = 0.04009",1001.19 ± 0.16 kg/m3
same,mass density,"276.69 K, m1 = 0.04963",1001.48 ± 0.16 kg/m3
same,mass density,"276.69 K, m1 = 0.0606",1001.81 ± 0.16 kg/m3
same,mass density,"276.69 K, m1 = 0.0711",1002.13 ± 0.16 kg/m3
same,mass density,"276.69 K, m1 = 0.07938",1002.37 ± 0.16 kg/m3
same,mass density,"276.69 K, m1 = 0.08509",1002.54 ± 0.16 kg/m3
same,mass density,"276.69 K, m1 = 0.09839",1002.95 ± 0.16 kg/m3
same,mass density,"277.12 K, m1 = 0.03044",1000.89 ± 0.16 kg/m3
same,mass density,"277.12 K, m1 = 0.04034",1001.19 ± 0.16 kg/m3
same,mass density,"277.12 K, m1 = 0.0492",1001.46 ± 0.16 kg/m3
same,mass density,"277.12 K, m1 = 0.05989",1001.78 ± 0.16 kg/m3
same,mass density,"277.12 K, m1 = 0.07063",1002.1 ± 0.16 kg/m3
same,mass density,"277.12 K, m1 = 0.07952",1002.37 ± 0.16 kg/m3
same,mass density,"277.12 K, m1 = 0.09022",1002.7 ± 0.16 kg/m3
same,mass density,"277.12 K, m1 = 0.09952",1002.97 ± 0.16 kg/m3
same,mass density,"277.67 K, m1 = 0.02944",1000.85 ± 0.16 kg/m3
same,mass density,"277.67 K, m1 = 0.04005",1001.17 ± 0.16 kg/m3
same,mass density,"277.67 K, m1 = 0.04974",1001.46 ± 0.16 kg/m3
same,mass density,"277.67 K, m1 = 0.0592",1001.74 ± 0.16 kg/m3
same,mass density,"277.67 K, m1 = 0.0695",1002.06 ± 0.16 kg/m3
same,mass density,"277.67 K, m1 = 0.08475",1002.51 ± 0.16 kg/m3
same,mass density,"277.67 K, m1 = 0.0911",1002.7 ± 0.16 kg/m3
same,mass density,"277.67 K, m1 = 0.1019",1003.04 ± 0.16 kg/m3
same,mass density,"278.12 K, m1 = 0.03078",1000.9 ± 0.16 kg/m3
same,mass density,"278.12 K, m1 = 0.03875",1001.11 ± 0.16 kg/m3
same,mass density,"278.12 K, m1 = 0.04963",1001.45 ± 0.16 kg/m3
same,mass density,"278.12 K, m1 = 0.05968",1001.76 ± 0.16 kg/m3
same,mass density,"278.12 K, m1 = 0.0709",1002.09 ± 0.16 kg/m3
same,mass density,"278.12 K, m1 = 0.07928",1002.34 ± 0.16 kg/m3
same,mass density,"278.12 K, m1 = 0.09099",1002.69 ± 0.16 kg/m3
same,mass density,"278.12 K, m1 = 0.1006",1002.98 ± 0.16 kg/m3
same,mass density,"278.65 K, m1 = 0.03078",1000.89 ± 0.16 kg/m3
same,mass density,"278.65 K, m1 = 0.03875",1001.13 ± 0.16 kg/m3
same,mass density,"278.65 K, m1 = 0.04963",1001.45 ± 0.16 kg/m3
same,mass density,"278.65 K, m1 = 0.05968",1001.75 ± 0.16 kg/m3
same,mass density,"278.65 K, m1 = 0.0709",1002.09 ± 0.16 kg/m3
same,mass density,"278.65 K, m1 = 0.07928",1002.34 ± 0.16 kg/m3
same,mass density,"278.65 K, m1 = 0.09099",1002.68 ± 0.16 kg/m3
same,mass density,"278.65 K, m1 = 0.1006",1002.96 ± 0.16 kg/m3
NCC(=O)O [2-aminoacetic acid] + O,mass density,"275.63 K, m1 = 0.02975",1000.98 ± 0.16 kg/m3
same,mass density,"275.63 K, m1 = 0.03917",1001.3 ± 0.16 kg/m3
same,mass density,"275.63 K, m1 = 0.05033",1001.69 ± 0.16 kg/m3
same,mass density,"275.63 K, m1 = 0.0596",1002 ± 0.16 kg/m3
same,mass density,"275.63 K, m1 = 0.07025",1002.37 ± 0.16 kg/m3
same,mass density,"275.63 K, m1 = 0.07948",1002.68 ± 0.17 kg/m3
same,mass density,"275.63 K, m1 = 0.089",1003.01 ± 0.17 kg/m3
same,mass density,"275.63 K, m1 = 0.09846",1003.34 ± 0.17 kg/m3
same,mass density,"276.13 K, m1 = 0.03055",1001.01 ± 0.16 kg/m3
same,mass density,"276.13 K, m1 = 0.04004",1001.34 ± 0.16 kg/m3
same,mass density,"276.13 K, m1 = 0.05063",1001.71 ± 0.16 kg/m3
same,mass density,"276.13 K, m1 = 0.05984",1002.02 ± 0.16 kg/m3
same,mass density,"276.13 K, m1 = 0.06886",1002.32 ± 0.16 kg/m3
same,mass density,"276.13 K, m1 = 0.08159",1002.76 ± 0.17 kg/m3
same,mass density,"276.13 K, m1 = 0.08976",1003.05 ± 0.17 kg/m3
same,mass density,"276.13 K, m1 = 0.1001",1003.39 ± 0.17 kg/m3
same,mass density,"276.69 K, m1 = 0.02962",1000.98 ± 0.16 kg/m3
same,mass density,"276.69 K, m1 = 0.03964",1001.32 ± 0.16 kg/m3
same,mass density,"276.69 K, m1 = 0.04889",1001.63 ± 0.16 kg/m3
same,mass density,"276.69 K, m1 = 0.06028",1002.02 ± 0.16 kg/m3
same,mass density,"276.69 K, m1 = 0.06972",1002.34 ± 0.16 kg/m3
same,mass density,"276.69 K, m1 = 0.07961",1002.68 ± 0.17 kg/m3
same,mass density,"276.69 K, m1 = 0.0885",1002.98 ± 0.17 kg/m3
same,mass density,"276.69 K, m1 = 0.1008",1003.39 ± 0.17 kg/m3
same,mass density,"277.12 K, m1 = 0.02962",1000.96 ± 0.16 kg/m3
same,mass density,"277.12 K, m1 = 0.03964",1001.31 ± 0.16 kg/m3
same,mass density,"277.12 K, m1 = 0.04889",1001.62 ± 0.16 kg/m3
same,mass density,"277.12 K, m1 = 0.06028",1002.01 ± 0.16 kg/m3
same,mass density,"277.12 K, m1 = 0.06972",1002.32 ± 0.16 kg/m3
same,mass density,"277.12 K, m1 = 0.07961",1002.66 ± 0.17 kg/m3
same,mass density,"277.12 K, m1 = 0.0885",1002.97 ± 0.17 kg/m3
same,mass density,"277.12 K, m1 = 0.1008",1003.38 ± 0.17 kg/m3
same,mass density,"277.67 K, m1 = 0.02975",1000.98 ± 0.16 kg/m3
same,mass density,"277.67 K, m1 = 0.03917",1001.3 ± 0.16 kg/m3
same,mass density,"277.67 K, m1 = 0.05033",1001.68 ± 0.16 kg/m3
same,mass density,"277.67 K, m1 = 0.0596",1002 ± 0.16 kg/m3
same,mass density,"277.67 K, m1 = 0.07025",1002.36 ± 0.16 kg/m3
same,mass density,"277.67 K, m1 = 0.07948",1002.67 ± 0.17 kg/m3
same,mass density,"277.67 K, m1 = 0.085",1002.85 ± 0.17 kg/m3
same,mass density,"277.67 K, m1 = 0.09846",1003.32 ± 0.17 kg/m3
same,mass density,"278.12 K, m1 = 0.02966",1000.97 ± 0.16 kg/m3
same,mass density,"278.12 K, m1 = 0.04207",1001.38 ± 0.16 kg/m3
same,mass density,"278.12 K, m1 = 0.05006",1001.65 ± 0.16 kg/m3
same,mass density,"278.12 K, m1 = 0.06152",1002.04 ± 0.16 kg/m3
same,mass density,"278.12 K, m1 = 0.06869",1002.28 ± 0.16 kg/m3
same,mass density,"278.12 K, m1 = 0.0814",1002.71 ± 0.17 kg/m3
same,mass density,"278.12 K, m1 = 0.08635",1002.88 ± 0.17 kg/m3
same,mass density,"278.12 K, m1 = 0.09984",1003.33 ± 0.17 kg/m3
same,mass density,"278.65 K, m1 = 0.02951",1000.95 ± 0.16 kg/m3
same,mass density,"278.65 K, m1 = 0.04154",1001.35 ± 0.16 kg/m3
same,mass density,"278.65 K, m1 = 0.04986",1001.64 ± 0.16 kg/m3
same,mass density,"278.65 K, m1 = 0.05429",1001.78 ± 0.16 kg/m3
same,mass density,"278.65 K, m1 = 0.07168",1002.36 ± 0.16 kg/m3
same,mass density,"278.65 K, m1 = 0.08119",1002.67 ± 0.17 kg/m3
same,mass density,"278.65 K, m1 = 0.0895",1002.96 ± 0.17 kg/m3
same,mass density,"278.65 K, m1 = 0.09674",1003.2 ± 0.17 kg/m3
